Assay results as given in article PMC11866022, “Long-Chain Cyclic Arylguanidines as Multifunctional Serotonin Receptor Ligands with Antiproliferative Activity” (ACS Omega, 2025).

Assays:
5-HT6 = molecular target: T1, 5-HT6 (Homo sapiens, UniProt P50406); assay: Radioligand binding assay, 5-HT6 ([3H]-LSD); conditions: HEK293 cell line with human 5-HT6R; 2 nM [3H]-LSD
T1 construct: expressed in transfected cells; host or cells: HEK293
Experimental: Ligand affinity for 5-HT6 receptors was subsequently tested with a radioligand binding assay, using the HEK293 cell line with human 5-HT6R, aiming to select compounds with the strongest affinity. Three compounds belonging to 2-naphthalenesulfonamide derivatives of 3,4-dihydroquinazolin-2-amines were obtained (Table 1).
(§1) The detailed procedure is presented in previous publications.[53] Assays were performed by incubating for 1 h at 37 °C (room temperature for 5-HT1A) in 200 μL volumes on 96-well plates. The reaction was terminated by rapid filtration using Unifilter plates, and radioactivity on the filters was measured with a PerkinElmer Microbeta plate reader. Radioligands used were:
(§2) Eight concentrations (10^–4 to 10^–11 M) were tested in triplicate for each compound. Inhibition constants (Ki) were calculated using the Cheng–Prusoff equation.[54] The results are expressed as the means of at least two independent experiments.

D2 = molecular target: T2, D2 (Homo sapiens, UniProt P14416); assay: Radioligand binding assay, D2 ([3H]-raclopride); conditions: Table 3, unit inferred; 2.5 nM [3H]-raclopride
T2 construct: expressed in transfected cells; host or cells: HEK293
Experimental: Their functional activity was also evaluated by assessing their ability to inhibit agonist-induced cAMP production in HEK293 cells (Table 3). Extended radioisotope tests were aimed at detecting potential affinity for other aminergic receptors, whose role in cancer treatment may be important. Functions were tested for all receptors. The essence of functional tests results from the fact that serotonin stimulates tumor progression. Therefore, the ligand should have the potential to reduce its concentration, i.e., act as an antagonist.[39]
as §1
D2: 2.5 nM [^3H]-raclopride
as §2

HEK293 = assay: Viability of HEK293 cells; assay type: cell-based; conditions: Homo sapiens
Excerpt: PP 10 was characterized by a moderate 5-HT1A/5-HT5A/5-HT6/5-HT7 antagonist profile. […] Due to its potential function as an […], the viability of HEK293 cells treated with the test compounds was examined. No cytotoxic effects of the compounds were detected in the tested concentration range.

U-251 glioblastoma cells = assay: Antiproliferative activity (MTS), U-251; assay type: cell-based, human; conditions: Homo sapiens, U-251; MTS assay, 72 h
Experimental: (§3) These cell lines were characterized by different mutation profiles, the main one being the variable status of the p53 protein. In detail, U87MG cells have a wild-type p53 protein, while astrocytoma and the rest of GBM cells harbor mutated p53 protein. Additional assays were performed on MCF7 breast cancer and AsPC-1 pancreatic cancer cells. The wide range of tested lines was aimed at screening the anticancer potential of the tested compounds. The first represents one of the most common and the second one of the most aggressive cancers in the world. Comparing the activity of compounds on GBM cells to other types of cancer may reveal their selectivity and usefulness in targeted therapies. The cytotoxicity of the compounds on normal human astrocytes (NHA) and Feline catus astrocyte (PG-4) was determined. Tests on normal lines serve to verify the potential toxicity of the tested compounds on healthy cells. Due to the targeting of CNS tumors, astrocytes were selected as normal lines.
The detailed procedure is presented in previous publications.[53] […] Cells were cultured in appropriate media, supplemented with FBS, antibiotics, and other supplements, and incubated at 37 °C with 5% CO2. […] Cell viability was assessed using the MTS assay, and the inhibitory concentration (IC50) was calculated using GraphPad Prism 8.0. Each compound was tested in triplicate across multiple experiments.

[1] = system: AsPC-1 pancreatic cancer cells; assay: Antiproliferative activity (MTS), AsPC-1; assay type: cell-based, human; conditions: Homo sapiens, ASPC1; MTS assay, 72 h
Experimental: as §3, with “The chosen group of ligands was further examined for their ability to inhibit proliferation across multiple cancer cell lines related to the CNS system (1321N1, U87MG, LN-229, and U-251). These” for “These”
The detailed procedure is presented in previous publications.[53] Briefly, the study utilized various human cancer and normal cell lines, including LN-229 (glioblastoma), MCF7 (breast carcinoma), HepG2 (hepatoma), U-251 (glioblastoma), U87MG (glioblastoma), AsPC-1 (pancreatic adenocarcinoma), and NHA (normal human astrocytes). Cells were cultured in appropriate media, supplemented with FBS, antibiotics, and other supplements, and incubated at 37 °C with 5% CO2. Compounds were dissolved in DMSO, prepared at various concentrations (1–25 μM), and applied to the cells for 72 h. Cell viability was assessed using the MTS assay, and the inhibitory concentration (IC50) was calculated using GraphPad Prism 8.0. Each compound was tested in triplicate across multiple experiments.

[2] = Metabolic stability in mouse liver microsomes; assay type: in vitro ADME; conditions: MLMs; for main metabolic pathway / metabolic stability, % of remaining: 120 min
Excerpt: Moving on to the next parameter, which is metabolism, we determined metabolic stability, using mouse liver microsomes (MLMs). […]
Main metabolic pathways are marked in red.

in vitro = conditions: PAMPA

T1 sequence (P50406 whole entry): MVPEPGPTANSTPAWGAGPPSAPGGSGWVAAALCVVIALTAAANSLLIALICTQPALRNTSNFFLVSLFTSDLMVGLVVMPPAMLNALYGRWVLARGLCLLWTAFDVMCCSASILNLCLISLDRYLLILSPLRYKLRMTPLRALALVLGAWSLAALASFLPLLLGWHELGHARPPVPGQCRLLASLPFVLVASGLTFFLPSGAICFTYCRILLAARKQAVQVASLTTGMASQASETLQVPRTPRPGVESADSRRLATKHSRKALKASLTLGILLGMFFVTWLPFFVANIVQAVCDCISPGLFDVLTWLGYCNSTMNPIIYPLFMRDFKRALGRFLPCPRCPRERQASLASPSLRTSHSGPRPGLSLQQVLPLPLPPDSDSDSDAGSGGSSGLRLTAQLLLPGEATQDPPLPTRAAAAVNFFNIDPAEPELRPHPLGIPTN
T2 sequence (P14416 whole entry): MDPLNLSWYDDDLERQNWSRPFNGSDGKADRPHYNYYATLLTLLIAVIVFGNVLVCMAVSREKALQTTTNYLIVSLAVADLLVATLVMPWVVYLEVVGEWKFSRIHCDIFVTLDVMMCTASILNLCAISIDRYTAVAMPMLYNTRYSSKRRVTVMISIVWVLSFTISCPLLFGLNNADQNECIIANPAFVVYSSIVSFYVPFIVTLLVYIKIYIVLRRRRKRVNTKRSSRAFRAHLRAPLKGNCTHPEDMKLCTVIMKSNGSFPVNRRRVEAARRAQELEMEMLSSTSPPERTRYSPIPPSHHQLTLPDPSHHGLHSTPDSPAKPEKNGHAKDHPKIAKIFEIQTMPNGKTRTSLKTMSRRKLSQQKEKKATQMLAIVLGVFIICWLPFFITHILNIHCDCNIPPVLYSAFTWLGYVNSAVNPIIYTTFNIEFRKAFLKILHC

| Ki (5-HT6) [nM] | IC50 (U-251 glioblastoma cells) [µM] | IC50 [1] [µM] | metabolic stability, % of remaining [2] [%] | SMILES | Ki (D2) [µM] | IC50 (HEK293) [µM] | main metabolic pathway [2] | number of potential metabolites identified [2] | Papp (in vitro) [×10⁻⁶ cm/s] |
| --- | --- | --- | --- | --- | --- | --- | --- | --- | --- |
| 109 ± 27 | > 25 | > 25 | 72.76 | O=S(=O)(c1cccc2ccccc12)N1CCN(CCNC2=Nc3ccccc3CN2)CC1 [PP 6, N-{2-[4-(Naphthalene-1-sulfonyl)piperazin-1-yl]ethyl}-3,4-dihydroquinazolin-2-amine] | 7.43 | 51 | double hydroxylation and double bond reduction | – | – |
| 69 ± 17 | > 25 | 14.6 ± 0.5 | 52.60 | CC1NC(NCCCCCCNS(=O)(=O)c2c(Cl)ccc3ccccc23)=Nc2ccccc21 (stereo not drawn) [PP 13, 2-Chloro-N-{6-[(4-methyl-3,4-dihydroquinazolin-2-yl)amino]hexyl}naphthalene-1-sulfonamide] | 1.9 | > 50 | ring opening and triple hydroxylation | 11 | 0.19 |
| 272 ± 68 | 16.5 ± 1 | 12.1 ± 1 | 93.13 | O=S1(=O)c2cccc3cccc(c23)N1CCCCCCNC1=Nc2ccccc2CN1 [PP 24, 3-{6-[(3,4-Dihydroquinazolin-2-yl)amino]hexyl}-2λ^6-thia-3-azatricyclo[6.3.1.0^4,^12]dodeca-1(11),4(12),5,7,9-pentaene-2,2-dione] | – | – | hydroxylation | – | 0.73 |

| SMILES | Ki (5-HT6) [nM] | IC50 (U-251 glioblastoma cells) [µM] | IC50 [1] [µM] | metabolic stability, % of remaining [2] [%] | Ki (D2) [µM] | IC50 (HEK293) [µM] | main metabolic pathway [2] | number of potential metabolites identified [2] | Papp (in vitro) [×10⁻⁶ cm/s] |
| --- | --- | --- | --- | --- | --- | --- | --- | --- | --- |
| CC1NC(NCCCCCCNS(=O)(=O)c2cccc3ccccc23)=Nc2ccccc21 (stereo not drawn) [PP 10, N-{6-[(4-Methyl-3,4-dihydroquinazolin-2-yl)amino]hexyl}naphthalene-1-sulfonamide] | 96 ± 22 | > 25 | > 25 | 66.60 | 2.93 | > 50 | double hydroxylation and double bond reduction or double hydroxylation and ring opening | 14 | 0.03 |
| O=S(=O)(NCCCCCCNc1ncc2ccccc2n1)c1cccc2ccccc12 [PP 15, N-{6-[(Quinazolin-2-yl)amino]hexyl}naphthalene-1-sulfonamide] | 42 ± 11 | > 25 | > 25 | 48.07 | 71.8 | > 50 | hydroxylation | – | 0.13 |
